{"source": "patent US11180486B2", "about": "“Indolylkojyl methane analogues, process of preparation thereof and use as inhibitor of cancer cells invasion and metastasis” (Council of Scientific & Industrial Research, priority 2017, dated 2021)", "format_in_all_cases": "cell-based, human", "key": {"MDA-MB-231 cells [1]": {"test_system": "MDA-MB-231 cells", "test": "Drug potentiation, cell viability (MTT) assay", "conditions": "200 nM 5 plus 200 nM doxorubicin (1:1), 48 h", "protocol": "(§1) Drug Potentiation Assay. Briefly, MDA-MB-231 cells were exposed to 200 nM of compound 5, 200 nM of doxorubicin alone and/or combination of both (1:1 ratio) for 48 h in cell viability (MTT) assay, for 5 days in a colony formation assay and subjected to western blotting for the expression of GRP78 and Par-4. The ability of 5 to enhance cell killing was expressed as potentiation index (PI), which was the ratio of the […]. Thus, PI>1 indicates potentiation and PI<1 indicates protection."}, "GRP78": {"test_system": "GRP78", "test": "Immunoblotting, expression of GRP78", "conditions": "for expression of intracellular GRP78 (time dependent study): 200 nM", "protocol": "(§2) Immunoblotting. MDA-MB-231 and MCF7 cells (0.5×10^6) were plated in six well plates for overnight in a humidified CO2 incubator and then exposed to varying concentrations of 5 (50, 100 and 200 nM) for 24 h along with vehicle (dose dependent study) and 200 nM of 5 for various time points like; 0, 6, 12, 24 and 48 h (time dependent study). Cells were then harvested, washed with chilled PBS and lysed with lysis buffer (HEPES 1 mM, KCl 60 mM, NP-40 0.3%, EDTA 1 mM, DTT 1 mM, sodium orthovanadate 1 mM, PMSF 0.1 mM and cocktail protease inhibitor). The cell extractions were centrifuged at 12,000 rpm for 10 min at 4° C. Protein concentration was measured by the standard Bradford method. An equal amount (20 μg) of protein from each sample was subjected to SDS-PAGE, and proteins were transferred to PVDF membranes (PALL), blocked with 5% (w/v) non-fat milk in PBS containing 0.1% Tween-20, probed with relevant antibodies (1:1000 dilution) for 3 h at room temperature or overnight at 4° C., and subsequently washed and probed with species-specific secondary antibodies coupled to horseradish peroxidase. Immunoreactive proteins were detected by Enhanced Chemiluminescence Plus (Thermo) (Rah et al., 2012, PloS one, 7(9), p.e44039.).\nas §1"}, "[2]": {"test_system": "normal breast epithelial (fR2) cells", "test": "Cell viability (MTT) assay, normal cells", "protocol": "Cell Culture and Reagents. The cell lines used in this study were procured from American Type Culture Collection (ATCC), Manassas, USA. MCF7, T47D and fR2 cells were cultured in RPMI-1640 medium, whereas the MDA-MB-231 cells were grown in Leibovitz's (L-15) medium supplemented with 10% fetal bovine serum (Gibco) and 1% penicillin/streptomycin (Sigma) in a humidified CO2 incubator (New Brunswick Galaxy 170 R) with 5% CO2. Reagents such as phenylmethylsulfonyl fluoride (PMSF), dithiothreitol (DTT), DMSO, crystal violet, and Bradford's reagent were purchased from Sigma-Aldrich. Protease inhibitor cocktail was procured from Roche. The antibodies for human GRP78, Par-4, MMP-2, MMP-9, NF-kB, E-cadherin and TIMP-1 were procured from Santa-Cruz Biotechnology. The β-actin antibody and the secondary antibodies such as anti-rabbit IgG and anti-mouse IgG were procured from Sigma-Aldrich.\nCell Viability Assay. The cell viability was determined by standard MTT assay method. […] The amount of coloured formazan derivatives formed was measured by taking optical density (OD) using a microplate reader (TECAN, Infinite M200 Pro) at 570 nm and the percentage cell viability was calculated. The IC50 values were calculated using GraphPad Prism software (Version 5.0). […]"}, "MDA-MB-231 cells [3]": {"test_system": "MDA-MB-231 cells", "test": "Drug potentiation, colony formation assay", "protocol": "Colony Formation Assay. The experiment was performed according to the pre-standardized protocol (Amin et al., 2015, Mol. Carcinog). Accordingly, MDA-MB-231 cells were seeded in 6 well plates at a density of 1×10^3 cells/ well and incubated for 5 days by giving treatment with vehicle, compound 5, doxorubicin alone and/or combination of compound 5 plus doxorubicin (1:1 ratio). Cells were subsequently washed, fixed with methanol and stained with 0.2% crystal violet for 1 h. Cells were counted from atleast 3 random fields for the colony number under an inverted microscope and photographed at 20× magnifications.\nas §1"}, "Par-4": {"test_system": "Par-4", "test": "Immunoblotting, expression of Par-4", "protocol": "as §2, with “An equal amount (20 μg) of protein from each sample was subjected to SDS-PAGE, and proteins were transferred to PVDF membranes (PALL), blocked with 5% (w/v) non-fat milk in PBS containing 0.1% Tween-20, probed with relevant antibodies (1:1000 dilution) for 3 h at room temperature or overnight at 4° C., and subsequently washed and probed with species-specific secondary antibodies coupled to horseradish peroxidase.” left out\nDrug Potentiation Assay. […] The ability of 5 to enhance cell killing was expressed as potentiation index (PI), which was the ratio of the % inhibition of 5 alone at the given dose and the % inhibition in combination with doxorubicin. […]"}, "E-cadherin": {"test_system": "E-cadherin", "test": "Immunoblotting, expression of E-cadherin", "conditions": "MDA-MB-231 cells; dose dependent", "protocol": "as §2"}, "[4]": {"conditions": "MDA-MB-231, 5 and doxorubicin in combination, 24 h, vs each alone, densitometry"}}, "note": "Entries after “also recorded” stand apart in the source; their conditions may differ.", "data": [{"smiles": "CCCCCCCC(c1oc(CO)cc(=O)c1O)c1c[nH]c2ccccc12", "note": "(stereo not drawn) [Compound 5, 2-{1-(1H-indol-3-yl)octyl}-3-hydroxy-6-(hydroxymethyl)-4H-pyran-4-one]", "values": [{"measurement": "potentiation index (PI)", "setting": "MDA-MB-231 cells [1]", "result": 3.1}, {"measurement": "expression of intracellular GRP78 (time dependent study)", "setting": "GRP78; 24 h time point", "result": "consistent decrease"}, {"measurement": "expression of intracellular GRP78 (time dependent study)", "setting": "GRP78; 48 h time period", "result": "almost vanished"}, {"measurement": "expression of GRP78 (dose dependent study)", "setting": "GRP78; 100 and 200 nM, 24 h, MDA-MB-231 and MCF7 vs vehicle", "result": "steady downregulation"}, {"measurement": "decrease in the expression of GRP78", "setting": "GRP78; [4]", "result": 5.1, "unit": "fold"}, {"measurement": "IC50", "setting": "[2]; Homo sapiens, FR2, MTT, 44 h + 4 h, mean ± SD of three experiments", "result": 74, "unit": "µM"}, {"measurement": "toxicity towards normal breast epithelial (fR2) cells", "setting": "[2]; in words", "result": "non-toxic; also recorded: less/non-toxic"}, {"measurement": "potentiation index (PI)", "setting": "MDA-MB-231 cells [3]; 200 nM 5 plus 200 nM doxorubicin (1:1), 5 days, colony formation", "result": 5.2}, {"measurement": "potentiation of the effect of doxorubicin", "setting": "MDA-MB-231 cells [3]; summary statement, combination with doxorubicin in breast cancer cells", "result": "≤ 6", "unit": "fold"}, {"measurement": "increase in the expression of Par-4", "setting": "Par-4; [4]", "result": 5.8, "unit": "fold"}, {"measurement": "expression of Par-4", "setting": "Par-4; MDA-MB-231 cells, dose dependent", "result": "induced significantly"}, {"measurement": "expression of E-cadherin", "setting": "E-cadherin", "result": "induced significantly"}]}]}
